Assays:
Adenosine A2A receptor = Adenosine A2A receptor (Homo sapiens (Human), UniProt P29274); assay: A2A Tag-Lite HTRF assay; type: binding; details: Tag-Lite Adenosine A2A labeled cells, displacement of A2A Receptor Red antagonist fluorescent ligand 12.5 nM; read-out: A2A_Ki
Excerpt: Example C. A2A Tag-Lite® HTRF Assay
The final concentration of DMSO was 1%.

[1] = molecular target: human adenosine A2B receptor (Homo sapiens (Human), UniProt P29275); assay: Adenosine A2B Receptor Cyclic AMP GS Assay; type: cell-based; details: HEK-293 cells expressing human A2B receptor, agonist NECA 12 nM, cAMP accumulation; read-out: A2B_cAMP_EC50
human adenosine A2B receptor, sequence (P29275 whole entry): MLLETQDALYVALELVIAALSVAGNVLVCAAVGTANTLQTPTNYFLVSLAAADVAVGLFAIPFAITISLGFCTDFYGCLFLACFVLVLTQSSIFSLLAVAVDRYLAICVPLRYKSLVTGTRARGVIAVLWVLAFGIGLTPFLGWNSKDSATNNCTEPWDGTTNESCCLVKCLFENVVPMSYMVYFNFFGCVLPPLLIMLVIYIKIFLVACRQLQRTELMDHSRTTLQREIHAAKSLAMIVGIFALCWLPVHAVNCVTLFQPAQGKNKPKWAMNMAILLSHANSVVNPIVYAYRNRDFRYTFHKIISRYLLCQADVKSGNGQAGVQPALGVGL
Method: Example B. Adenosine A2B Receptor Cyclic AMP GS Assay
Stably transfected HEK-293 cells expressing the human adenosine A2B receptor (Perkin Elmer) were maintained in MEM culture medium with 10% FBS and 100 μg/mL Geneticin (Life Technologies). 18 to 24 hours prior to assay, geneticin was removed from culture. The cisbio cAMP-GS Dynamic kit utilizing the FRET (Fluorescence Resonance Energy Transfer) technology was used to measure cAMP accumulation in the cells. Compounds of the present disclosure at an appropriate concentration were mixed with 10000 cells/well in white 96 well half area plates (Perkin Elmer) for 30 min at room temperature gently shaking. Agonist, NECA (R&D Technologies) at 12 nM was added to each well for 60 min at room temperature gently shaking. Detection reagents, d2-labeled cAMP (acceptor) and anti-cAMP cryptate (donor) were added to each well for 60 min at RT gently shaking. Plates were read on Pherastar (BMG Labtech), fluorescence ratio 665/620 was calculated and EC50 determination was performed by fitting the curve of percent of control versus the log of the compound concentration using GraphPad Prism.

Adenosine A2A receptor, sequence (P29274 whole entry): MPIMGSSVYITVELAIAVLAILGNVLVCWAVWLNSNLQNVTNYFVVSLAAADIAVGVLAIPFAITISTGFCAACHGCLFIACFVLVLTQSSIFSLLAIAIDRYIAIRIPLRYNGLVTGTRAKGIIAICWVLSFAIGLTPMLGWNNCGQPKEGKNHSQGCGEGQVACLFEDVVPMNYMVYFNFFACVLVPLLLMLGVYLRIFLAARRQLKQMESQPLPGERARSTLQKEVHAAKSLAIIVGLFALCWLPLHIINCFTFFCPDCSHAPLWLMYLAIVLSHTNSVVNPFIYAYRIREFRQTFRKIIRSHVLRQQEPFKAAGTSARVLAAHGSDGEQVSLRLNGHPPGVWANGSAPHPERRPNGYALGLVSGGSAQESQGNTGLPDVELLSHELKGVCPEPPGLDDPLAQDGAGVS

| Ki (Adenosine A2A receptor) | EC50 [1] | Structure (SMILES) |
| --- | --- | --- |
| < 10 nM | 10 to 100 nM | CN1CCC(NCc2cccc(F)c2C(O)c2nc3cc(-c4cccc(C#N)c4F)nc(N)n3n2)C1=O (single isomer, unassigned) [Example 16, 3-(5-Amino-2-((2-fluoro-6-(((1-methyl-2-oxopyrrolidin-3-yl)amino)methyl)phenyl)(hydroxy)methyl)-[1,2,4]triazolo[1,5-c]pyrimidin-7-yl)-2-fluorobenzonitrile] |
| < 10 nM | 100 to 1000 nM | N#Cc1cccc(-c2cc3nc(C(N)c4ccccc4)nn3c(N)n2)c1 (centres unmarked) [Example 8, 3-(5-Amino-2-(amino(phenyl)methyl)-[1,2,4]triazolo[1,5-c]pyrimidin-7-yl)benzonitrile] |
| < 10 nM | 10 to 100 nM | N#Cc1cccc(-c2nc(N)n3nc(Cc4ccccc4)nc3c2CO)c1 [Example 9, 3-(5-Amino-2-benzyl-8-(hydroxymethyl)-[1,2,4]triazolo[1,5-c]pyrimidin-7-yl)benzonitrile] |
| < 10 nM | 100 to 1000 nM | N#Cc1cccc(-c2cc3nc(Nc4ccccc4)nn3c(N)n2)c1 [Example 10, 3-(5-Amino-2-(phenylamino)-[1,2,4]triazolo[1,5-c]pyrimidin-7-yl)benzonitrile] |
| < 10 nM | 10 to 100 nM | N#Cc1cccc(-c2cc3nc(Cc4ccccc4)cn3c(N)n2)c1 [Example 11, 3-(5-Amino-2-benzylimidazo[1,2-c]pyrimidin-7-yl)benzonitrile] |
| < 10 nM | > 1000 nM | CCNC(=O)c1nc2cc(-c3cccc(C#N)c3)nc(N)n2n1 [Example 12, 5-Amino-7-(3-cyanophenyl)-N-ethyl-[1,2,4]triazolo[1,5-c]pyrimidine-2-carboxamide] |
| < 10 nM | 10 to 100 nM | Cc1c(C#N)cccc1-c1cc2nc(C(O)c3c(F)cccc3F)nn2c(N)n1 (centres unmarked) [Example 13, 3-(5-Amino-2-((2,6-difluorophenyl)(hydroxy)methyl)-[1,2,4]triazolo[1,5-c]pyrimidin-7-yl)-2-methylbenzonitrile] |
| < 10 nM | < 10 nM | N#Cc1cccc(-c2cc3nc(C(O)c4c(F)cccc4F)nn3c(N)n2)c1F (centres unmarked) [Example 14, 3-(5-Amino-2-((2,6-difluorophenyl)(hydroxy)methyl)-[1,2,4]triazolo[1,5-c]pyrimidin-7-yl)-2-fluorobenzonitrile] |
| < 10 nM | < 10 nM | N#Cc1cccc(-c2nc(N)n3nc(C(O)c4c(F)cccc4F)nc3c2C#N)c1F (centres unmarked) [Example 15, 5-Amino-7-(3-cyano-2-fluorophenyl)-2-((2,6-difluorophenyl)(hydroxy)methyl)-[1,2,4]triazolo[1,5-c]pyrimidine-8-carbonitrile] |
| < 10 nM | 10 to 100 nM | CN1CCC2(CN(Cc3cccc(F)c3C(O)c3nc4cc(-c5cccc(C#N)c5F)nc(N)n4n3)C2)C1=O (centres unmarked) [Example 17, 3-(5-Amino-2-((2-fluoro-6-((6-methyl-5-oxo-2,6-diazaspiro[3.4]octan-2-yl)methyl)phenyl)(hydroxy)methyl)-[1,2,4]triazolo[1,5-c]pyrimidin-7-yl)-2-fluorobenzonitrile] |
| < 10 nM | 10 to 100 nM | N#Cc1cccc(-c2cc3nc(Cc4c(F)cccc4CNC4CCN(CC(=O)O)C4=O)nn3c(N)n2)c1F (centres unmarked) [Example 19, 2-(3-((2-((5-Amino-7-(3-cyano-2-fluorophenyl)-[1,2,4]triazolo[1,5-c]pyrimidin-2-yl)methyl)-3-fluorobenzyl)amino)-2-oxopyrrolidin-1-yl)acetic acid] |
| < 10 nM | 10 to 100 nM | N#Cc1cccc(-c2cc3nc(Cc4c(F)cccc4CN4CCC(c5nn[nH]n5)C4)nn3c(N)n2)c1F (centres unmarked) [Example 23, 3-(2-(2-((3-(2H-Tetrazol-5-yl)pyrrolidin-1-yl)methyl)-6-fluorobenzyl)-5-amino-[1,2,4]triazolo[1,5-c]pyrimidin-7-yl)-2-fluorobenzonitrile] |
| < 10 nM | 10 to 100 nM | CCN1CCC(NCc2cccc(F)c2Cc2nc3cc(-c4cccc(C#N)c4F)nc(N)n3n2)C1=O (centres unmarked) [Example 24, 3-(5-Amino-2-(2-(((1-ethyl-2-oxopyrrolidin-3-yl)amino)methyl)-6-fluorobenzyl)-[1,2,4]triazolo[1,5-c]pyrimidin-7-yl)-2-fluorobenzonitrile] |
| < 10 nM | 10 to 100 nM | CC(=O)N[C@H]1CCN(Cc2cccc(F)c2Cc2nc3cc(-c4cccc(C#N)c4F)nc(N)n3n2)C1 [Example 25, (S)—N-(1-(2-((5-Amino-7-(3-cyano-2-fluorophenyl)-[1,2,4]triazolo[1,5-c]pyrimidin-2-yl)methyl)-3-fluorobenzyl)pyrrolidin-3-yl)acetamide] |
| < 10 nM | 10 to 100 nM | N#Cc1cccc(-c2cc3nc(Cc4c(F)cccc4CN4CC[C@H](C#N)C4)nn3c(N)n2)c1F [Example 27, (S)-1-(2-((5-Amino-7-(3-cyano-2-fluorophenyl)-[1,2,4]triazolo[1,5-c]pyrimidin-2-yl)methyl)-3-fluorobenzyl)pyrrolidine-3-carbonitrile] |
| < 10 nM | 10 to 100 nM | CN1CCC2(CN(Cc3cccc(F)c3Cc3nc4cc(-c5cccc(C#N)c5F)nc(N)n4n3)C2)C1=O [Example 28, 3-(5-Amino-2-(2-fluoro-6-((6-methyl-5-oxo-2,6-diazaspiro[3.4]octan-2-yl)methyl)benzyl)-[1,2,4]triazolo[1,5-c]pyrimidin-7-yl)-2-fluorobenzonitrile] |

Further lines, the compound ahead of its results:

| Structure (SMILES) | Ki (Adenosine A2A receptor) | EC50 [1] |
| --- | --- | --- |
| N#Cc1cccc(-c2cc3nc(C(O)c4ccccc4)nn3c(N)n2)c1 (centres unmarked) [Example 1, 3-(5-Amino-2-(hydroxy(phenyl)methyl)-[1,2,4]triazolo[1,5-c]pyrimidin-7-yl)benzonitrile] | < 10 nM | < 10 nM |
| N#Cc1cccc(-c2cc3nc(Cc4ccccc4)nn3c(N)n2)c1 [Example 2, 3-(5-Amino-2-benzyl-[1,2,4]triazolo[1,5-c]pyrimidin-7-yl)benzonitrile] | < 10 nM | < 10 nM |
| N#Cc1cccc(-c2cc3nc(Cc4ccccn4)nn3c(N)n2)c1 [Example 3, 3-(5-Amino-2-(pyridin-2-ylmethyl)-[1,2,4]triazolo[1,5-c]pyrimidin-7-yl)benzonitrile] | < 10 nM | < 10 nM |
| N#Cc1cccc(-c2cc3nc(CC4CCCCC4)nn3c(N)n2)c1 [Example 4, 3-(5-Amino-2-(cyclohexylmethyl)-[1,2,4]triazolo[1,5-c]pyrimidin-7-yl)benzonitrile] | < 10 nM | 100 to 1000 nM |
| Cn1cc(-c2cccc(Cc3nc4cc(-c5cccc(C#N)c5)nc(N)n4n3)c2)cn1 [Example 5, 3-(5-Amino-2-(3-(1-methyl-1H-pyrazol-4-yl)benzyl)-[1,2,4]triazolo[1,5-c]pyrimidin-7-yl)benzonitrile] | < 10 nM | 100 to 1000 nM |
| N#Cc1cccc(-c2cc3nc(CN4CCCC4=O)nn3c(N)n2)c1 [Example 6, 3-(5-Amino-2-((2-oxopyrrolidin-1-yl)methyl)-[1,2,4]triazolo[1,5-c]pyrimidin-7-yl)benzonitrile] | < 10 nM | 100 to 1000 nM |
| Cn1ccnc1Cc1nc2cc(-c3cccc(C#N)c3)nc(N)n2n1 [Example 7, 3-(5-Amino-2-((1-methyl-1H-imidazol-2-yl)methyl)-[1,2,4]triazolo[1,5-c]pyrimidin-7-yl)benzonitrile] | < 10 nM | 10 to 100 nM |
| CCN(Cc1cccc(F)c1C(O)c1nc2cc(-c3cccc(C#N)c3F)nc(N)n2n1)[C@H]1CCNC1=O (stereo partly drawn) [Example 18, 3-(5-Amino-2-((2-((ethyl((S)-2-oxopyrrolidin-3-yl)amino)methyl)-6-fluorophenyl)(hydroxy)methyl)-[1,2,4]triazolo[1,5-c]pyrimidin-7-yl)-2-fluorobenzonitrile] | < 10 nM | < 10 nM |
| N#Cc1cccc(-c2cc3nc(Cc4c(F)cccc4CN[C@@H]4CCOC4=O)nn3c(N)n2)c1F [Example 20, (R)-3-(5-Amino-2-(2-fluoro-6-(((2-oxotetrahydrofuran-3-yl)amino)methyl)benzyl)-[1,2,4]triazolo[1,5-c]pyrimidin-7-yl)-2-fluorobenzonitrile] | < 10 nM | < 10 nM |
| N#Cc1cccc(-c2cc3nc(Cc4c(F)cccc4CN[C@@H]4CCNC4=O)nn3c(N)n2)c1F [Example 21, (R)-3-(5-Amino-2-(2-fluoro-6-(((2-oxopyrrolidin-3-yl)amino)methyl)benzyl)-[1,2,4]triazolo[1,5-c]pyrimidin-7-yl)-2-fluorobenzonitrile] | < 10 nM | < 10 nM |
| N#Cc1cccc(-c2cc3nc(Cc4c(F)cccc4CN[C@H]4CCNC4=O)nn3c(N)n2)c1F [Example 22, (S)-3-(5-Amino-2-(2-fluoro-6-(((2-oxopyrrolidin-3-yl)amino)methyl)benzyl)-[1,2,4]triazolo[1,5-c]pyrimidin-7-yl)-2-fluorobenzonitrile] | < 10 nM | < 10 nM |
| N#Cc1cccc(-c2cc3nc(Cc4c(F)cccc4CN4CCC[C@H]4c4nn[nH]n4)nn3c(N)n2)c1F [Example 26, (S)-3-(2-(2-((2-(2H-Tetrazol-5-yl)pyrrolidin-1-yl)methyl)-6-fluorobenzyl)-5-amino-[1,2,4]triazolo[1,5-c]pyrimidin-7-yl)-2-fluorobenzonitrile] | < 10 nM | < 10 nM |

From patent US11168089B2, “Fused pyrimidine derivatives as A2A / A2B inhibitors” (Incyte Corporation, priority 2018, dated 2021)
